Measurements published in ChEMBL document CHEMBL6127072, “PROTAC unleashed: Unveiling the synthetic approaches and potential therapeutic applications” (Eur J Med Chem, 2024).

Columns and labels:
[1] = molecular target: Protein cereblon/Androgen receptor (Homo sapiens, UniProt P10275+Q96SW2); assay: PROTAC activity at AR/CRBN in human A549 cells assessed as induction of androgen receptor degradation measured after 1 hr by Western blot analysis; format: cell-based
[2] = molecular target: T1, Protein cereblon/Bromodomain-containing protein 4 (Homo sapiens, UniProt O60885+Q96SW2); assay: PROTAC activity at CRBN/BRD4 in human MV4-11 cells assessed as maximal degradation at 1 uM incubated for 30 mins by Western blot analysis relative to control; format: cell-based
T1 sequence (Q96SW2 whole entry, looked up, other chains not shown): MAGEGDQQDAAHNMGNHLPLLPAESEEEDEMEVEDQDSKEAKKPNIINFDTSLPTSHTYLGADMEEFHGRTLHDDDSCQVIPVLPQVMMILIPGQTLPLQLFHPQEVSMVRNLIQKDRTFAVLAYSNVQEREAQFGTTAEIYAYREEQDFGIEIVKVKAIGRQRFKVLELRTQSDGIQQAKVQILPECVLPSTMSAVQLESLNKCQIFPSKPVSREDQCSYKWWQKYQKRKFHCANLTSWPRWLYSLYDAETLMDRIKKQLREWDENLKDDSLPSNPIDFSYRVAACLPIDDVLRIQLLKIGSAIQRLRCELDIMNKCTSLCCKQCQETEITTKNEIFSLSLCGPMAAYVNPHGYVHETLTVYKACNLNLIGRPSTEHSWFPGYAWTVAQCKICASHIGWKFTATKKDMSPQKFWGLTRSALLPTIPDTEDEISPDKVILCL

[3] = molecular target: T1, Protein cereblon/Bromodomain-containing protein 4; assay: PROTAC activity at CRBN/BRD4 in human MV4-11 cells assessed as induction of degradation of BRD4 measured after 24 hrs by Western blot analysis; format: cell-based
[4] = molecular target: T2, 3-hydroxy-3-methylglutaryl-coenzyme A reductase (Homo sapiens) (UniProt P04035); assay: Inhibition of HMG-CoA reductase (unknown origin) at 10 uM relative to control
T2 sequence (whole entry): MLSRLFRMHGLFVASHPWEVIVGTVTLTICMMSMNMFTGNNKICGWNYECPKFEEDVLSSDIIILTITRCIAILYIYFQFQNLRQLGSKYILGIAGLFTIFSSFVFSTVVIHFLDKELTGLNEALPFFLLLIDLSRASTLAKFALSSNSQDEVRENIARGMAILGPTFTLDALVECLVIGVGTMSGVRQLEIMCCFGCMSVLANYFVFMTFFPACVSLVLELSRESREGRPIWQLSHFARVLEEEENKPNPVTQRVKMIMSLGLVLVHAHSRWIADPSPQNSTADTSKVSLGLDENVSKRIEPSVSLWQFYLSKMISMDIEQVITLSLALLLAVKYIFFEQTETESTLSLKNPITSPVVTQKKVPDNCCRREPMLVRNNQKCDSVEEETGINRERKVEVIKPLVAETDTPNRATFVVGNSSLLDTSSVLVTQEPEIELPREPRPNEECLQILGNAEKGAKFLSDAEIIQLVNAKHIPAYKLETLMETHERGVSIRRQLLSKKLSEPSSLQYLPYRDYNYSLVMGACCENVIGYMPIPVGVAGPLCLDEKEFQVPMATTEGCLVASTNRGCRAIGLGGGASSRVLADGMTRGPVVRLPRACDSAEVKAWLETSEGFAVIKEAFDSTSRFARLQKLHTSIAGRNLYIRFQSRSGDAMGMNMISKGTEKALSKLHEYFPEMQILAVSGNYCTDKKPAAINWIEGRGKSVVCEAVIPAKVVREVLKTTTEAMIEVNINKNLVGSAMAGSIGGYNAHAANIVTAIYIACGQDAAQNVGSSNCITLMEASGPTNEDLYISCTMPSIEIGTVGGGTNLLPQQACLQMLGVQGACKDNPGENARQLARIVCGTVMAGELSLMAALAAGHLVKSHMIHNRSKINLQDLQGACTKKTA

[5] = molecular target: Protein cereblon/Microtubule-associated protein tau (Homo sapiens, UniProt P10636+Q96SW2); assay: PROTAC activity at CRBN/tau in HEK293T cells measured for 48 hrs by immunoblot analysis; format: cell-based
Protein cereblon/Microtubule-associated protein tau, sequence (P10636 whole entry): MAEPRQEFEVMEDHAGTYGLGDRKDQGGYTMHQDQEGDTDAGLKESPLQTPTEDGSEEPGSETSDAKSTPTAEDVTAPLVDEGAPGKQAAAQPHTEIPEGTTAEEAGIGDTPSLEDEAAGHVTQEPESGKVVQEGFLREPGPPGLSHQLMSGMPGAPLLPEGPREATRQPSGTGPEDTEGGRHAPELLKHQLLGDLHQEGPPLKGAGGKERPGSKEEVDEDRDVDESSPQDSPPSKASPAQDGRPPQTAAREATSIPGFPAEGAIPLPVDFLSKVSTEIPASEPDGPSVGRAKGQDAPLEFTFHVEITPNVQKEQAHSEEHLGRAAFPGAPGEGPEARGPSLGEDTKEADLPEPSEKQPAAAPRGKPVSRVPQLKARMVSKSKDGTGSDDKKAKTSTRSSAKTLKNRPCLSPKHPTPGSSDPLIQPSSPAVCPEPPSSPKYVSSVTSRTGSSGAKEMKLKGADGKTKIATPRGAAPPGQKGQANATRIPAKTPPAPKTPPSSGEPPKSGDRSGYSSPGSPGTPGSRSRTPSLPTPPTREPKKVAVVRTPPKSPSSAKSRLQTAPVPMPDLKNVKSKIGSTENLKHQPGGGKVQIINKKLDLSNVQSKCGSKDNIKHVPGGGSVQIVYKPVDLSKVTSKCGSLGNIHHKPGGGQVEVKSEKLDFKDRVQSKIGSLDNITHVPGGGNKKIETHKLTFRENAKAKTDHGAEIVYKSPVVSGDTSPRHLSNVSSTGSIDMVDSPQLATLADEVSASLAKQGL
Protein cereblon/Microtubule-associated protein tau, sequence (Q96SW2 whole entry): as the sequence (Q96SW2 whole entry, looked up, other chains not shown) above

[6] = molecular target: T1, Protein cereblon/Bromodomain-containing protein 4; assay: PROTAC activity at CRBN/BRD4 in human MV4-11 cells assessed as induction of degradation of BRD4; format: cell-based
[7] = molecular target: Replicase polyprotein 1ab (Severe acute respiratory syndrome coronavirus 2, UniProt P0DTD1); assay: Inhibition of SARS CoV-2 MPro
[8] = molecular target: T3, 3-hydroxy-3-methylglutaryl-coenzyme A reductase (Homo sapiens, UniProt P04035); assay: Inhibition of HMG-CoA Reductase (unknown origin)
T3 sequence (P04035 whole entry): T2 sequence (whole entry)

[9] = molecular target: Protein cereblon/Leucine-rich repeat serine/threonine-protein kinase 2 (Homo sapiens, UniProt Q5S007+Q96SW2); assay: PROTAC activity at CRBN/LRRK2 in human MOLT-4 cells assessed as induction of protein .degradation incubated for 48 hrs by Western blot analysis; format: cell-based
Protein cereblon/Leucine-rich repeat serine/threonine-protein kinase 2, sequence (Q5S007 whole entry): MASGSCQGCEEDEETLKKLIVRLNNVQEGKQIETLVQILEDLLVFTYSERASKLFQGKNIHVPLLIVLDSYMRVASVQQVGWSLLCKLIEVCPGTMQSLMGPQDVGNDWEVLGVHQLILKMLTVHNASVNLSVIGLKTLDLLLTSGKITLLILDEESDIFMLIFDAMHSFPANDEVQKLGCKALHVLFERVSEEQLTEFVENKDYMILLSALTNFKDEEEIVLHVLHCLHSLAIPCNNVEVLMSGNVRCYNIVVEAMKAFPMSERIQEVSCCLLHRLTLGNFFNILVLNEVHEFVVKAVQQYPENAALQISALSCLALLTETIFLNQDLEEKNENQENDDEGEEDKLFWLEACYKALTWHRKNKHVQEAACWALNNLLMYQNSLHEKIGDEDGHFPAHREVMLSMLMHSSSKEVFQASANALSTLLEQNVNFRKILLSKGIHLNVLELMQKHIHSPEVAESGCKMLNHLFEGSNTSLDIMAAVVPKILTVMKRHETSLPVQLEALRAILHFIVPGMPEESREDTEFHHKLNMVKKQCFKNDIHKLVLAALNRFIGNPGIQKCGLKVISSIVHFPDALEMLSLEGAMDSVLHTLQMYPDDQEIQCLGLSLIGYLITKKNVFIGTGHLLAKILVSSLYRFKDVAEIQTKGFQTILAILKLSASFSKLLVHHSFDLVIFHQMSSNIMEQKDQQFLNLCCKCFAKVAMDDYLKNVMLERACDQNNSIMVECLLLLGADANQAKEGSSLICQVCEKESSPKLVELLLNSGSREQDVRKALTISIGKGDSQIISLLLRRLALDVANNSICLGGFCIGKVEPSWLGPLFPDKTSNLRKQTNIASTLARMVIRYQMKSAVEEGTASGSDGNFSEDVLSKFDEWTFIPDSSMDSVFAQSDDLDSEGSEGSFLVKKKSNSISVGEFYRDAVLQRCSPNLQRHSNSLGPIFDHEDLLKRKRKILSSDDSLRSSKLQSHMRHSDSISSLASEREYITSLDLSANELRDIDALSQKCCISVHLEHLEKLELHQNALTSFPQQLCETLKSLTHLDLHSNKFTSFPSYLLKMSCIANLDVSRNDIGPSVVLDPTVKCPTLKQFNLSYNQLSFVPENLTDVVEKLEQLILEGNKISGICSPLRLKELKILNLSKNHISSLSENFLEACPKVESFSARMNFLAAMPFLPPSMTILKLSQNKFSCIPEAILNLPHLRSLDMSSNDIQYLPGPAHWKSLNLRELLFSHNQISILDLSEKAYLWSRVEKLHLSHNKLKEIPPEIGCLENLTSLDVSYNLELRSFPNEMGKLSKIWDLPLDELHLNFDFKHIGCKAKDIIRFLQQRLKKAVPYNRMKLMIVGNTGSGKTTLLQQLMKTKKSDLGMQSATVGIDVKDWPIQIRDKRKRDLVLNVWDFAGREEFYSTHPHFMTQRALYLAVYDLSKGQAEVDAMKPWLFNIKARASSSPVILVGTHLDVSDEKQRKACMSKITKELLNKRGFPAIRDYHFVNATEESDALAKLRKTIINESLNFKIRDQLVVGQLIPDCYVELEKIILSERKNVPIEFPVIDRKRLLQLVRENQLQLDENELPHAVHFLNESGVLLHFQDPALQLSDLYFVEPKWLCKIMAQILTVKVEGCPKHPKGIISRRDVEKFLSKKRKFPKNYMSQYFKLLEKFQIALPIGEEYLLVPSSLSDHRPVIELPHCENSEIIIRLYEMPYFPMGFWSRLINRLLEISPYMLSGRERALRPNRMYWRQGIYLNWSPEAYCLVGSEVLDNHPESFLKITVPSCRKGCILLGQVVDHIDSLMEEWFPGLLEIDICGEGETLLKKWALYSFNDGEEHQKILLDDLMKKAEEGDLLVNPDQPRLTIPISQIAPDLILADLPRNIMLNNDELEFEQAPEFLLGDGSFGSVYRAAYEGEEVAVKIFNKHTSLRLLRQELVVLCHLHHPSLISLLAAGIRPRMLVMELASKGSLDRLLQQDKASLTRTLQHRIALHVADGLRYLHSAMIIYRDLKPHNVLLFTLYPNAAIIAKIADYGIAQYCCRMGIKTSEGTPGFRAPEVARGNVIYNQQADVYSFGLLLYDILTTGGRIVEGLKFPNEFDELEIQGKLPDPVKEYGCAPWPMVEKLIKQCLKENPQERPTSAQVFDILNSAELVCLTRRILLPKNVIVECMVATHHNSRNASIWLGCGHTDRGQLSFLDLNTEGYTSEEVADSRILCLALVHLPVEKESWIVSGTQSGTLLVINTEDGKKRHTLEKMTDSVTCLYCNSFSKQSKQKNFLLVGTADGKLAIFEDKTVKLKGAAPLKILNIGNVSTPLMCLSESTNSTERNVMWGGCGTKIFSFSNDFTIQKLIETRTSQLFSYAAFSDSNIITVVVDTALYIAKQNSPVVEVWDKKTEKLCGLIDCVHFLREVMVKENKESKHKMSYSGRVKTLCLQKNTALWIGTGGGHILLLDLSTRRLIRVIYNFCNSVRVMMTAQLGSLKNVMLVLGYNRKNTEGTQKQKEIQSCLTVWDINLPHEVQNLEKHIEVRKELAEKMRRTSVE
Protein cereblon/Leucine-rich repeat serine/threonine-protein kinase 2, sequence (Q96SW2 whole entry): as the sequence (Q96SW2 whole entry, looked up, other chains not shown) above

NS3 protease = NS3 protease (Hepacivirus C, UniProt C1KIQ2); assay: Inhibition of Hepatitis C virus NS3 protease; parameters: species or system Hepacivirus hominis
NS3 protease, sequence (C1KIQ2 whole entry): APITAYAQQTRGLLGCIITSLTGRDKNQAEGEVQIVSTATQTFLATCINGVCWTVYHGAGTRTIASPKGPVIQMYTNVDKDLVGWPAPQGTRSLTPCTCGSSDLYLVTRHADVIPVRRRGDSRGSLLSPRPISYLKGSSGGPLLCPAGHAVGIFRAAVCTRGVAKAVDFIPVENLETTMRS

Protein cereblon/Androgen receptor, sequence (P10275 whole entry): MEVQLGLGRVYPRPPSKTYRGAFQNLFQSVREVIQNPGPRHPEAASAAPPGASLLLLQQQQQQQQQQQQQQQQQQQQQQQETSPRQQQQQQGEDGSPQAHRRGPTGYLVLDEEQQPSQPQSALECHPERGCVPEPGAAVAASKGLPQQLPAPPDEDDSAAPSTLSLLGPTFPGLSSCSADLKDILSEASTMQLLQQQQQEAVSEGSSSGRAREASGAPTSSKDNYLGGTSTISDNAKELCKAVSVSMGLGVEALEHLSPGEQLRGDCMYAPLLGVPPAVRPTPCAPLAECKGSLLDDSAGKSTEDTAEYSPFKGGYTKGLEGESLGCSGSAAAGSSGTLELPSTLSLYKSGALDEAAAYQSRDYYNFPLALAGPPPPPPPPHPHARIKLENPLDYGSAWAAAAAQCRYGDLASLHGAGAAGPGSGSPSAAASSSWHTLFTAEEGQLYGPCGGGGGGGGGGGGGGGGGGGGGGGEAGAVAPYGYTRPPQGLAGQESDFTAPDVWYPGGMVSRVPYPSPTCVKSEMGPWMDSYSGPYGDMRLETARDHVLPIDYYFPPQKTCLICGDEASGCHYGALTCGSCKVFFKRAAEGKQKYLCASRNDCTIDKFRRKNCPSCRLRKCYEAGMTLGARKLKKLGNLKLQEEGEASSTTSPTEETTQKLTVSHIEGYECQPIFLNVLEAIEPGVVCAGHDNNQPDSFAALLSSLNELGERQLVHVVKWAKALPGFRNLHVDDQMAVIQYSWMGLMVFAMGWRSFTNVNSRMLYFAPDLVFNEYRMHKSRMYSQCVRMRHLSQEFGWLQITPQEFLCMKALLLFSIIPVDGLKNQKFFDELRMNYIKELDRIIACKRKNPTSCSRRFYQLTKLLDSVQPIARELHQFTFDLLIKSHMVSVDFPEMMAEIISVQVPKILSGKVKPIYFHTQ
Protein cereblon/Androgen receptor, sequence (Q96SW2 whole entry): as the sequence (Q96SW2 whole entry, looked up, other chains not shown) above

CC1(C)C(=O)N(c2ccc(C#N)c(C(F)(F)F)c2)C(=O)N1c1ccc(-c2ccc(O[C@@H]3CCN(C(=O)C4CCN(c5ccc6c(c5)C(=O)N(C5CCC(=O)NC5=O)C6=O)CC4)C3)cc2)cc1 (stereo partly specified)
DC50 [1]: 75 nM

Cc1sc2c(c1C)C(c1ccc(Cl)cc1)=N[C@@H](CC(=O)NCCCCCNCCOc1ccc(C3CC(=O)NC(=O)C3)cc1)c1nnc(C)n1-2
Emax [2]: 99% | DC50 [3]: < 1 nM

Cc1ncsc1-c1ccc(CNC(=O)[C@@H]2C[C@@H](O)CN2C(=O)[C@@H](NC(=O)CCCCCCCCCCNC(=O)O[C@@H]2C[C@H](C)C=C3C=C[C@@H](C)[C@@H](CC[C@@H]4C[C@@H](O)CC(=O)O4)[C@@H]32)C(C)(C)C)cc1
inhibition [4]: 56%

O=C(CCc1ccc2[nH]c3ccncc3c2c1)NCCOCCCOCCNc1cccc2c1C(=O)N(C1CCC(=O)NC1=O)C2=O (stereo unspecified)
DC50 [5]: 75 nM

Cc1cc(-c2cc(NC(=O)CCC(=O)NCCOCCOCCNc3ccc4c(c3)C(=O)N(C3CCC(=O)NC3=O)C4=O)ccc2Oc2ccccc2)n2cc[nH]c(=O)c12 (stereo unspecified)
DC50 [6]: 0.75 nM

Cc1ncsc1-c1ccc(CNC(=O)[C@@H]2C[C@@H](O)CN2C(=O)[C@@H](NC(=O)CCOCCOCCOCCNC(=O)[C@]23CCC(C)(C)C[C@H]2[C@H]2CC[C@@H]4[C@@]5(C)CC[C@H](O)C(C)(C)[C@@H]5CC[C@@]4(C)[C@]2(C)CC3)C(C)(C)C)cc1
IC50 [7]: 1140 nM

C[C@@H](OC(C)(C)C)[C@H](NC(=O)OCc1cccc(OCCCCCOc2cccc3c2C(=O)N(C2CCC(=O)NC2=O)C3=O)c1)C(=O)N[C@H](CN[C@H](C=O)C[C@@H]1CCNC1=O)CC1CCCCC1 (stereo partly specified)
EC50 [7]: 290 nM

Cc1ncsc1-c1ccc(CNC(=O)[C@@H]2C[C@@H](O)CN2C(=O)[C@@H](NC(=O)CCCCCCCCCCNC(=O)O[C@@H]2C[C@H](C)C=C3C=C[C@@H](C)[C@@H](CC[C@@H](O)C[C@@H](C)CC(=O)O)[C@@H]32)C(C)(C)C)cc1
IC50 [8]: 120 nM

CC(C)C[C@H](CCOCCOCCOCCNc1ccc(-c2cc(-c3cccc(Br)c3)[nH]n2)cc1)NC(=O)[C@H](O)[C@@H](N)Cc1ccccc1
DC50 [9]: 5.04 µM

CCC[C@H](NC(=O)[C@H]1N(C(=O)[C@@H](NC(=O)[C@@H](NC(=O)c2cnc(CC(=O)NCCOCCOCCOc3cc4c5c(cccc5c3)C(=O)N(C3CCC(=O)NC3=O)C4=O)cn2)C2CCCCC2)C(C)(C)C)C[C@]2(C)CCC[C@]12C)C(=O)C(=O)NC1CC1 (stereo partly specified)
EC50 (NS3 protease): 50 nM
